Tested on: Salmonella
Settings: used in suspension
Method: To evaluate the antimicrobial capacity of PLA films, 600 mg of film were weighed, for both control without clay and for the sample with antimicrobial clay, and placed into 10 mL of sterile culture medium. They were stored at 4° C. for four weeks, prior to inoculation with Salmonella spp.

## O=[N+]([O-])[O-].[Ag+] [silver nitrate]
  minimum bactericidal concentration (reducing the population to zero): around 100 ppm
